Experimental data from patent publication US20240100058A1, “METHOD FOR SELECTING, ASSESSING, OR PRODUCING SODIUM LAURYL SULFATE AS RAW MATERIAL FOR PHARMACEUTICAL FORMULATION, OR FORMULATION OR THE LIKE CONTAINING SAME” (Chugai Seiyaku Kabushiki Kaisha, priority 2019, published 2024).

Experiments:
Type in all cases: physicochemical
[1] = X-ray powder diffraction of sodium lauryl sulfate lots after storage under accelerated condition; settings: for storage period at which new XRPD peaks were first detected: open system, sulfate
[2] = Sulfate ion quantification by ion chromatography in sodium lauryl sulfate after accelerated storage; settings: for sulfate ion concentration in sample solution: after 4-day storage at 70° C., relative humidity about 10%, about 5 mg sample in 50 mL water
Protocol: (§1) A sample of sodium lauryl sulfate (about 250 mg) was placed in a glass vial and stored in an open system at a temperature of 70° C. and a relative humidity of about 10% (a saturated aqueous solution of LiCl). Samples of before storage, stored for a single day, 2 days, 3 days, 4 days, 7 days and 11 days were subjected to X-ray powder diffraction performed in the conditions of Example 1.
Sulfate ions generated by decomposition of sodium lauryl sulfate in the samples of Lot 1 and Lot 2 after 4-day storage were quantified by ion chromatography shown below.
Sodium lauryl sulfate (about 5 mg) was weighed and water was added up to 50 mL. The solution was irradiated with ultrasonic wave for 15 minutes and filtered by a membrane filter (DISMIC-25HP PTFE 0.45 μm HYDROPHILIC, manufactured by ADVANTEC). The filtrate was passed through a solid-phase extraction cartridge (Dionex OnGuard II RP, manufactured by ThermoFisher Scientific) washed and the eluate was used as a sample solution. Separately, solutions having a sulfate ion concentration of 1 mg/L, 2 mg/L, 3 mg/L, 4 mg/L and 5 mg/L were prepared by use of the sulfate ion standard solution (1 g/L, manufactured by Wako Pure Chemical Industries Ltd.) for ion chromatography and used as the standard solutions. […]
The concentration of sulfate ion in a sample solution was calculated based on the calibration curve prepared by using the standard solutions.
Sodium lauryl sulfate is usually stored at room temperature; however, there are possible cases, e.g., transportation, where it is stored at a higher temperature than room temperature. […] After storage, sulfate ions generated by decomposition of sodium lauryl sulfate in the sample were quantified by ion chromatography shown in Example 4.

[3] = X-ray powder diffraction of sodium lauryl sulfate lots after storage under accelerated condition; settings: for storage period in which XRPD peaks of sodium lauryl sulfate-dodecanol complex were observed: 70° C., relative humidity about 10% (saturated LiCl), open system, stored up to day 11; for storage period at which new XRPD peaks (2θ around 4.9° and 7.4°) were first detected: airtight system, up to 4 days
Protocol: Samples (appropriate amount) of different lots, Lot 1 (production date: 2015.12.22) and Lot 2 (production date: 2017.3.10)) of sodium lauryl sulfate, which were obtained from a single manufacturer and produced on different days, were placed in glass vials and stored in an airtight system under condition 1A (temperature 60° C.) and condition 1B (temperature 70° C.). Samples before storage, stored for 3 days and 4 day were subjected to X-ray powder diffraction (XRPD). Measurement was performed in the conditions shown below.
X-ray powder diffraction method: • Measuring device: X′Pert-Pro MPD (manufactured by PANalytical) • Anti-cathode: Cu • Tube voltage: 45 kV • Tube current: 40 mA • Step width: 0.02 • Scan axis: 20 • Sampling time per step: 43 seconds • Scan range: 3 to 40°
as §1

[4] = condition 2A: 70° C., relative humidity about 79% (saturated NaCl)
[5] = condition 2B: 70° C., relative humidity about 10% (saturated LiCl), up to 6 days

storage period at which new XRPD peaks were first detected [1, 4] | physical state of sample after storage ([1]; condition 2A: 70° C., relative humidity about 79%, 2-days and 3-days storage) | storage period at which new XRPD peaks were first detected [1, 5] | sulfate ion concentration in sample solution [2] | storage period in which XRPD peaks of sodium lauryl sulfate-dodecanol complex were observed [3] | storage period at which new XRPD peaks (2θ around 4.9° and 7.4°) were first detected ([3]; condition 1A: 60° C.) | storage period at which new XRPD peaks (2θ around 4.9° and 7.4°) were first detected ([3]; condition 1B: 70° C.) | sulfate ion concentration detected by ion chromatography ([2]; prior storage under Conditions 1-17 of Table 1 (30-40° C. 45 days plus up to 48 hours at up to 60° C.), then 70° C., about 10% RH, 4 days) | Structure (SMILES)
1 days | changed to a liquid state | 3 days | 24.1 mg/L | ≥ 3 days | 4 days | 3 days |  | CCCCCCCCCCCCOS(=O)(=O)[O-].[Na+] [Lot 1, sodium lauryl sulfate]
3 days |  | > 6 days | ≤ 1 mg/L | > 11 days | > 4 days | > 4 days |  | CCCCCCCCCCCCOS(=O)(=O)[O-].[Na+] [Lot 2, sodium lauryl sulfate]
 |  |  |  |  |  |  | ≤ 1 mg/L | CCCCCCCCCCCCOS(=O)(=O)[O-].[Na+] [Lot 5, sodium lauryl sulfate]
